Source: US20230053540A1, “TREATMENT OF LIVER INJURY” (Massachusetts Institute of Technology, priority 2019, published 2023)

Tested on: hepatocytes
Assay: Seq-Well scRNA-Seq of hepatocytes after APAP overdose (signature scores, DEG vs untreated)
Assay type: in vivo, mouse
[1] = A24 (24 h post-APAP) vs other clusters, Wilcox

Compound: CC(=O)Nc1ccc(O)cc1 [APAP, acetaminophen]
- Vcam1 avg_logFC (A6 vs UT): 0.4574
- Vcam1 pct.1 (A6 vs UT): 0.134
- Vkorc1 avg_logFC (A6 vs UT): −0.4042
- Vkorc1 pct.1 (A6 vs UT): 0.296
- Vsig4 avg_logFC (A6 vs UT): 0.4833
- Vsig4 pct.1 (A6 vs UT): 0.117
- Wbp1l avg_logFC (A6 vs UT): 0.5535
- Wdr26 avg_logFC (A6 vs UT): 0.4325
- Wdr26 pct.1 (A6 vs UT): 0.549
- Wfdc17 avg_logFC (A6 vs UT): 0.4867
- Wfdc17 pct.1 (A6 vs UT): 0.177
- Xbp1 avg_logFC (A6 vs UT): 0.6032
- Xrn2 A6logFC (A6 vs UT): 0.2985
- Xrn2 avg_logFC (A6 vs UT): 0.2985
- Xrn2 pct.1 (A6 vs UT): 0.387
- Yap1 A6logFC (A6 vs UT): 0.3281
- Ythdc1 A6logFC (A6 vs UT): 0.2641
- Ythdc1 avg_logFC (A6 vs UT): 0.2641
- Ythdc1 pct.1 (A6 vs UT): 0.301
- Ywhag avg_logFC (A6 vs UT): 0.5824
- Zbtb20 avg_logFC (A6 vs UT): 0.4715
- Zbtb20 pct.1 (A6 vs UT): 0.566
- Zfand5 A6logFC (A6 vs UT): 0.2882
- Zfand5 avg_logFC (A6 vs UT): 0.2882
- Zfand5 pct.1 (A6 vs UT): 0.401
- Zfp106 A6logFC (A6 vs UT): 0.3369
- Zfp106 avg_logFC (A6 vs UT): 0.3369
- Zfp106 pct.1 (A6 vs UT): 0.391
- Zfp259 A6logFC (A6 vs UT): 0.2556
- Zfp259 avg_logFC (A6 vs UT): 0.2556
- Zfp259 pct.1 (A6 vs UT): 0.32
- mmu-mir-6240 avg_logFC (A6 vs UT): 1.101
- mt-Co2 avg_logFC (A6 vs UT): −1.105
- mt-Co3 avg_logFC (A6 vs UT): −0.7059
- mt-Co3 pct.1 (A6 vs UT): 0.346
- mt-Nd1 avg_logFC (A6 vs UT): −0.3883
- mt-Nd4 avg_logFC (A6 vs UT): −0.6388
- n-R5-8s1 avg_logFC (A6 vs UT): 0.7661
- avg_logFC AA474408 [1]: 0.4148
- avg_logFC Abca1 [1]: 0.3831
- avg_logFC Acly [1]: 0.4101
- avg_logFC Acox1 [1]: 0.2743
- avg_logFC Acsl4 [1]: 0.299
- avg_logFC Adh4 [1]: 0.392
- avg_logFC Ak3 [1]: 0.2505
- avg_logFC Aox3 [1]: 0.3489
- avg_logFC Arcn1 [1]: 0.3044
- avg_logFC Atp8b1 [1]: 0.361
- avg_logFC Atp11c [1]: 0.2568
- avg_logFC Atxn1 [1]: 0.325
- avg_logFC Calm1 [1]: 0.3702
- avg_logFC Calu [1]: 0.3005
- avg_logFC Canx [1]: 0.2771
- avg_logFC Cltc [1]: 0.3397
- avg_logFC Cmah [1]: 0.4243
- avg_logFC Copa [1]: 0.3334
- avg_logFC Cps1 [1]: 0.2775
- avg_logFC Ctnnb1 [1]: 0.329
- avg_logFC Cxcl1 [1]: 0.453
- avg_logFC Cyb5r3 [1]: 0.3097
- avg_logFC Ddost [1]: 0.2909
- avg_logFC Dhcr24 [1]: 0.2824
- avg_logFC Dnajb11 [1]: 0.3288
- avg_logFC Dnajc12 [1]: 0.3241
- avg_logFC Echdc1 [1]: 0.2818
- avg_logFC Edem1 [1]: 0.2675
- avg_logFC Efna1 [1]: 0.3161
- avg_logFC Eif4g1 [1]: 0.2763
- avg_logFC Eif4g2 [1]: 0.3515
- avg_logFC Eprs [1]: 0.2513
- avg_logFC Etnk1 [1]: 0.3194
- avg_logFC Fam120a [1]: 0.2583
- avg_logFC Fasn [1]: 0.2699
- avg_logFC Fndc3b [1]: 0.3202
- avg_logFC Fos [1]: 0.3632
- avg_logFC Gjb2 [1]: 0.2998
- avg_logFC Gm5424 [1]: 0.262
- avg_logFC Gm24245 [1]: 0.414
- avg_logFC Grlf1 [1]: 0.2556
- avg_logFC Hnf4a [1]: 0.255
- avg_logFC Hs3st3b1 [1]: 0.3219
- avg_logFC Hsd3b5 [1]: 0.3009
- avg_logFC Hsd17b2 [1]: 0.3231
- avg_logFC Hspa13 [1]: 0.342
- avg_logFC Ibtk [1]: 0.2959
- avg_logFC Il6st [1]: 0.3011
- avg_logFC Il13ra1 [1]: 0.2889
- avg_logFC Insig1 [1]: 0.4125
- avg_logFC Kmo [1]: 0.2687
- avg_logFC Lasp1 [1]: 0.2608
- avg_logFC Lgr4 [1]: 0.2572
- avg_logFC Lman1 [1]: 0.2518
- avg_logFC Lpgat1 [1]: 0.2525
- avg_logFC Lrg1 [1]: 0.3096
- avg_logFC Lrp1 [1]: 0.4837
- avg_logFC Lrrc59 [1]: 0.2688
- avg_logFC Met [1]: 0.2512
- avg_logFC Mlec [1]: 0.3405
- avg_logFC Mtss1 [1]: 0.2522
- avg_logFC Mtus1 [1]: 0.3125
- avg_logFC Mug2 [1]: 0.3166
- avg_logFC Nab1 [1]: 0.2601
- avg_logFC Nars [1]: 0.3127
- avg_logFC Nedd4 [1]: 0.3306
- avg_logFC Nr1d2 [1]: 0.3855
- avg_logFC Nr5a2 [1]: 0.2599
- avg_logFC Nrp1 [1]: 0.33
- avg_logFC Ostc [1]: 0.3082
- avg_logFC Pnpla7 [1]: 0.3966
- avg_logFC Prg4 [1]: 0.4007
- avg_logFC Prkd3 [1]: 0.3041
- avg_logFC Proz [1]: 0.28
- avg_logFC Pten [1]: 0.2663
- avg_logFC Ptprf [1]: 0.2888
- avg_logFC Qsox1 [1]: 0.2818
- avg_logFC Rab1 [1]: 0.3145
- avg_logFC Rdx [1]: 0.276
- avg_logFC Rpn1 [1]: 0.3992
- avg_logFC Rrbp1 [1]: 0.2968
- avg_logFC Sdf2l1 [1]: 0.3078
- avg_logFC Sec31a [1]: 0.2596
- avg_logFC Sec61b [1]: 0.3008
- avg_logFC Sel1l [1]: 0.2833
- avg_logFC Sh3bgrl [1]: 0.2668
- avg_logFC Slc3a1 [1]: 0.3074
- avg_logFC Slc38a10 [1]: 0.2557
- avg_logFC Spcs3 [1]: 0.3907
- avg_logFC Srebf1 [1]: 0.3149
- avg_logFC Srp72 [1]: 0.28
- avg_logFC Srpr [1]: 0.2914
- avg_logFC Ssr1 [1]: 0.3129
- avg_logFC Stard4 [1]: 0.2922
- avg_logFC Stt3b [1]: 0.2648
- avg_logFC Tmed7 [1]: 0.3715
- avg_logFC Tmem30a [1]: 0.3056
- avg_logFC Trip12 [1]: 0.2832
- avg_logFC Txndc5 [1]: 0.2758
- avg_logFC Uggt1 [1]: 0.2805
- avg_logFC Uso1 [1]: 0.3202
- avg_logFC Usp4 [1]: 0.2959
- avg_logFC Usp9x [1]: 0.3387
- avg_logFC Zbtb20 [1]: 0.3135
- Atp11c A24logFC (A24 vs UT): 0.2605
- Brd2 A24logFC (A24 vs UT): 0.2664
- Caprin1 A24logFC (A24 vs UT): 0.2628
- Copz1 A24logFC (A24 vs UT): 0.2577
- Ctsc A24logFC (A24 vs UT): 0.3004
- Ddost A24logFC (A24 vs UT): 0.2504
- Deptor A24logFC (A24 vs UT): 0.2606
- Eif4b A24logFC (A24 vs UT): 0.256
- Fasn A24logFC (A24 vs UT): 0.2914
- Gm20594 A24logFC (A24 vs UT): −0.36
- Lasp1 A24logFC (A24 vs UT): 0.253
- Proz A24logFC (A24 vs UT): 0.2632
- Rnf13 A24logFC (A24 vs UT): 0.2553
- Ubb A24logFC (A24 vs UT): −0.2593
- avg_logFC 1110008F13Rik (A24 vs untreated (UT)): −0.4553
- avg_logFC AA474408 (A24 vs untreated (UT)): 0.4364
- avg_logFC Aadac (A24 vs untreated (UT)): −0.4038
- avg_logFC Abca1 (A24 vs untreated (UT)): 0.4394
- avg_logFC Acaa1b (A24 vs untreated (UT)): −0.8508
- avg_logFC Acot1 (A24 vs untreated (UT)): −0.2862
- avg_logFC Acox1 (A24 vs untreated (UT)): 0.2752
- avg_logFC Acsl1 (A24 vs untreated (UT)): −0.3703
- avg_logFC Acsl4 (A24 vs untreated (UT)): 0.3147
- avg_logFC Actb (A24 vs untreated (UT)): 0.3845
- avg_logFC Adh1 (A24 vs untreated (UT)): −0.342
- avg_logFC Adh4 (A24 vs untreated (UT)): 0.3769
- avg_logFC Ahcy (A24 vs untreated (UT)): −0.563
- avg_logFC Ak3 (A24 vs untreated (UT)): 0.289
- avg_logFC Akr1c6 (A24 vs untreated (UT)): −0.3176
- avg_logFC Alas1 (A24 vs untreated (UT)): −0.4898
- avg_logFC Aldh3a2 (A24 vs untreated (UT)): −0.3008
- avg_logFC Ankrd55 (A24 vs untreated (UT)): −1.874
- avg_logFC Aox3 (A24 vs untreated (UT)): 0.2878
- avg_logFC Apcs (A24 vs untreated (UT)): 0.6067
- avg_logFC Apoa2 (A24 vs untreated (UT)): −0.5455
- avg_logFC Apoa5 (A24 vs untreated (UT)): −0.299
- avg_logFC Apob (A24 vs untreated (UT)): 0.4272
- avg_logFC Apoc1 (A24 vs untreated (UT)): −0.3803
- avg_logFC Apoc3 (A24 vs untreated (UT)): −0.4404
- avg_logFC Apoc4 (A24 vs untreated (UT)): −0.4285
- avg_logFC Apoe (A24 vs untreated (UT)): −0.4213
- avg_logFC Arcn1 (A24 vs untreated (UT)): 0.3278
- avg_logFC Arrdc3 (A24 vs untreated (UT)): 0.5269
- avg_logFC Atp8b1 (A24 vs untreated (UT)): 0.3628
- avg_logFC Atp5h (A24 vs untreated (UT)): −0.5795
- avg_logFC Atxn1 (A24 vs untreated (UT)): 0.3049
- avg_logFC B2m (A24 vs untreated (UT)): −0.418
- avg_logFC BC025446 (A24 vs untreated (UT)): 0.2942
- avg_logFC Bhmt (A24 vs untreated (UT)): −0.5202
- avg_logFC C3 (A24 vs untreated (UT)): 0.4495
- avg_logFC C8a (A24 vs untreated (UT)): 0.3337
- avg_logFC C8b (A24 vs untreated (UT)): 0.3187
- avg_logFC C8g (A24 vs untreated (UT)): −0.482
- avg_logFC Calm1 (A24 vs untreated (UT)): 0.4131
- avg_logFC Calr (A24 vs untreated (UT)): 0.5551
- avg_logFC Calu (A24 vs untreated (UT)): 0.3041
- avg_logFC Canx (A24 vs untreated (UT)): 0.3434
- avg_logFC Cat (A24 vs untreated (UT)): 0.2626
- avg_logFC Cebpb (A24 vs untreated (UT)): −0.4716
- avg_logFC Ces1c (A24 vs untreated (UT)): −0.2783
